From patent publication US7622275B2, “Aequorin as a growth marker in yeast” (Sanofi-Aventis Deutschland GmbH, priority 2001, dated 2009)
Like-named read-outs stand apart in the source and are kept apart here.

Tests used:
S. cerevisiae [1] = system: S. cerevisiae
S. cerevisiae [2] = settings: 100 μM in SC Glucose-Trp
S. cerevisiae [3] = assay: Aequorin growth marker signal upon toxic treatment (pYX132TPI-AEQ strain); format: cell-based, Saccharomyces cerevisiae; settings: for Aequorin signal: 100 μM in SC Glucose-Trp; for Aequorin difference between toxic treatment and normal growth: 100 μM
Experimental: As a yeast strain W303 MAT a, far::hisG, sst2::URA3^FOA, fus1::HIS3 was used.
The cells are distributed and/or grown in a white 96-well plate, in a volume of 100 μl.
30 minutes before the measurement time point, 10 μl of a 5 μM coelenterazine (Molecular Probes) solution is distributed in each well (to obtain a 0.5 μM final concentration) to load the cells.
The plate is then incubated at 30° C. for the last 30 minutes.
Aequorin detection is made in a luminometer with injecting system (Luminoskan, Labsystems). For each well, immediately after injection of a 10 mM CaCl2 solution (1 M CaCl2 diluted in lysis buffer Y-PER from Pierce), the luminescent signal is integrated for 15 seconds.
To avoid the intermediate step of loading, it is possible to introduce coelenterazine in the medium at the beginning of the assay: coelenterazine is added at a concentration of 0.5 μM.
(i.e. only half of the normal signal), and the starving cells give a signal of 64 r.l.u.

Structure (SMILES): O=C1Cc2cc(CCN3CCN(c4nsc5ccccc45)CC3)c(Cl)cc2N1 [Ziprasidone]
- toxic effects on S. cerevisiae (S. cerevisiae [1]): high toxic effects
- OD630 (S. cerevisiae [1]; 100 μM in SC Glucose-Trp, after 24 hours treatment, normal growth over 1): 0.5-0.7
- β-Galactosidase signal (S. cerevisiae [2]; after 5 hours of treatment, normal growth 276, starving cells 64): 116 r.l.u.
- β-Galactosidase signal (S. cerevisiae [2]; after 24 hours treatment, non treated cells 2275): 1923 r.l.u.
- Aequorin signal (S. cerevisiae [3]; after 5 hours of treatment, normal growth 138, starving cells 16): 10 r.l.u.
- Aequorin signal (S. cerevisiae [3]; after 24 hours treatment, normal growth 175): 50 r.l.u.
- Aequorin difference between toxic treatment and normal growth (S. cerevisiae [3]; after 5 hours of treatment): 10 fold
- Aequorin difference between toxic treatment and normal growth (S. cerevisiae [3]; after 24 hours treatment): 3.5 fold
